From ChEMBL document CHEMBL2176988 (J Med Chem, 2012)

How the values were obtained:
[1] = target: T1, Neuronal acetylcholine receptor; alpha3/beta4 (Homo sapiens, UniProt P30926+P32297); test: Agonist activity at human alpha3beta4 nAChR expressed in CHO cells assessed as calcium flux by calcium4-based FLIPR assay relative to nicotine; assay type: functional, cell-based
[2] = target: T2, Neuronal acetylcholine receptor; alpha4/beta2 (Homo sapiens, UniProt P17787+P43681); test: Displacement of [3H]nicotine from alpha4beta2 nAChR in human SH-EP1 cells after 2 hrs by liquid scintillation assay; assay type: cell-based
T2 sequence (P17787 whole entry): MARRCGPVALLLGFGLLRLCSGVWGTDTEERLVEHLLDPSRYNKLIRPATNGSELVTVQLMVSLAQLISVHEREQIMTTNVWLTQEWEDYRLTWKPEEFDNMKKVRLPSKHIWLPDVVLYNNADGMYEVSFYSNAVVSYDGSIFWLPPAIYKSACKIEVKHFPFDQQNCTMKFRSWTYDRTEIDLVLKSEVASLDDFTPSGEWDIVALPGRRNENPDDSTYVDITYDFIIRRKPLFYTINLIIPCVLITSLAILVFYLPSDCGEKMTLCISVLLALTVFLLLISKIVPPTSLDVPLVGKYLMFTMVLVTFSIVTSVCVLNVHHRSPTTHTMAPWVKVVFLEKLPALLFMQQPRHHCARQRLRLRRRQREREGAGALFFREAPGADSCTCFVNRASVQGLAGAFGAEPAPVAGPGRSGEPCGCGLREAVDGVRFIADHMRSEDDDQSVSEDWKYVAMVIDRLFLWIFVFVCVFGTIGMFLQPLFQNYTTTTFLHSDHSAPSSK
T2 sequence (P43681 whole entry): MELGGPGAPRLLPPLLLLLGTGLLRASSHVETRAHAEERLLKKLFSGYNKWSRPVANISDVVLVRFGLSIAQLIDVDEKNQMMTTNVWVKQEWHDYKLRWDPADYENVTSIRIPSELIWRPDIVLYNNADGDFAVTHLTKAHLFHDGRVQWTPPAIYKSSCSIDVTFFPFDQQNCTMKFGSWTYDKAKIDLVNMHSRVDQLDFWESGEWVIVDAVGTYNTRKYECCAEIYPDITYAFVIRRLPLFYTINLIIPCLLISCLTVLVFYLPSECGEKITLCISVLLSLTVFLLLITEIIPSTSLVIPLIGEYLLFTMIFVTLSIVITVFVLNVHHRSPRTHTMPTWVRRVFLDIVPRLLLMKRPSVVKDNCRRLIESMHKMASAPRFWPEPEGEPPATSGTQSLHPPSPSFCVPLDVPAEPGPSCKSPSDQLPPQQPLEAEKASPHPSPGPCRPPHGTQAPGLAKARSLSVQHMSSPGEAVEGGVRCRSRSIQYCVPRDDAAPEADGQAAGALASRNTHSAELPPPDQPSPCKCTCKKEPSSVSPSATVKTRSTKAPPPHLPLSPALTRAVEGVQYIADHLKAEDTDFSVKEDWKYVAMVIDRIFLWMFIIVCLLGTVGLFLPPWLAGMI

[3] = target: Neuronal acetylcholine receptor; alpha4/beta2 (Rattus norvegicus, UniProt P09483+P12390); test: Displacement of [3H]epibatidine from alpha4beta2 nAChR in Sprague-Dawley rat cortex after 2 hrs by liquid scintillation counting
Sequence of Neuronal acetylcholine receptor; alpha4/beta2 (Rattus norvegicus, UniProt P09483+P12390) (P09483 whole entry): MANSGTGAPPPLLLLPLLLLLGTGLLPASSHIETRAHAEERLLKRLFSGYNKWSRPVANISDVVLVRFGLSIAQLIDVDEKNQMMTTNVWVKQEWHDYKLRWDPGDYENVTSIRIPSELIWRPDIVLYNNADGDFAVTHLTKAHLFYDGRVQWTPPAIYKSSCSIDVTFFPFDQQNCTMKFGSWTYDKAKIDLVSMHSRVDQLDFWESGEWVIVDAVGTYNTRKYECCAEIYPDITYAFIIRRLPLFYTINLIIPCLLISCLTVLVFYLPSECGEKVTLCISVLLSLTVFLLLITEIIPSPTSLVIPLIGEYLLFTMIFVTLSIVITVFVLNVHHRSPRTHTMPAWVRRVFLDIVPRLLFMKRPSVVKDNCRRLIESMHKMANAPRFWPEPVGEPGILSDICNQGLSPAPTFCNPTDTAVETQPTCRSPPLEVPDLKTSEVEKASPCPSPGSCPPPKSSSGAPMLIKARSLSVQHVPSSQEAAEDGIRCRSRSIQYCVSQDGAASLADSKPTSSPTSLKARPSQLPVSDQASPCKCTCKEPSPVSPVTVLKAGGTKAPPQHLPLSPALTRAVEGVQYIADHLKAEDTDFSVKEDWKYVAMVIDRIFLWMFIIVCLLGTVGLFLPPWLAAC
Sequence of Neuronal acetylcholine receptor; alpha4/beta2 (Rattus norvegicus, UniProt P09483+P12390) (P12390 whole entry): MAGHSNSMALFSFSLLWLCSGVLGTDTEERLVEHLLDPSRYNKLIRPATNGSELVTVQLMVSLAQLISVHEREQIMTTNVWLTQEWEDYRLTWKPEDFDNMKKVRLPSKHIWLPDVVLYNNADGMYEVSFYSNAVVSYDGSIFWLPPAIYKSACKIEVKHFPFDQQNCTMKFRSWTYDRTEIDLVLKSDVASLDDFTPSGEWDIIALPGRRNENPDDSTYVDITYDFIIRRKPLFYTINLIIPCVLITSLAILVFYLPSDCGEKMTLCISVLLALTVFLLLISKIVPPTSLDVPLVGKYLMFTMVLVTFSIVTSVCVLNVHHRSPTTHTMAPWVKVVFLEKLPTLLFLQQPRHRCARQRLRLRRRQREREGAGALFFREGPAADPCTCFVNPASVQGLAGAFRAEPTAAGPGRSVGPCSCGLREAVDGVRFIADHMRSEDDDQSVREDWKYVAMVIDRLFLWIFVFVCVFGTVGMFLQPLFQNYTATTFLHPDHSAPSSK

[4] = target: T2, Neuronal acetylcholine receptor; alpha4/beta2; test: Agonist activity at alpha4beta2 nAChR in human SH-EP1 cells assessed as calcium flux by calcium4-based FLIPR assay; assay type: functional, cell-based
[5] = target: T1, Neuronal acetylcholine receptor; alpha3/beta4; test: Agonist activity at human alpha3beta4 nAChR expressed in CHO cells assessed as calcium flux by calcium4-based FLIPR assay; assay type: functional, cell-based
[6] = target: T1, Neuronal acetylcholine receptor; alpha3/beta4; test: Displacement of [3H]epibatidine from human alpha3beta4 nAChR expressed in CHO cells after 2 hrs by liquid scintillation counting; assay type: cell-based
[7] = target: T2, Neuronal acetylcholine receptor; alpha4/beta2; test: Agonist activity at alpha4beta2 nAChR in human SH-EP1 cells assessed as calcium flux by calcium4-based FLIPR assay relative to nicotine; assay type: functional, cell-based
[8] = target: Neuronal acetylcholine receptor subunit alpha-7 (Homo sapiens, UniProt P36544); test: Displacement of [3H]epibatidine from human alpha7 nAChR expressed in CHO cells after 2 hrs by liquid scintillation counting; assay type: cell-based
Sequence of Neuronal acetylcholine receptor subunit alpha-7 (P36544 whole entry): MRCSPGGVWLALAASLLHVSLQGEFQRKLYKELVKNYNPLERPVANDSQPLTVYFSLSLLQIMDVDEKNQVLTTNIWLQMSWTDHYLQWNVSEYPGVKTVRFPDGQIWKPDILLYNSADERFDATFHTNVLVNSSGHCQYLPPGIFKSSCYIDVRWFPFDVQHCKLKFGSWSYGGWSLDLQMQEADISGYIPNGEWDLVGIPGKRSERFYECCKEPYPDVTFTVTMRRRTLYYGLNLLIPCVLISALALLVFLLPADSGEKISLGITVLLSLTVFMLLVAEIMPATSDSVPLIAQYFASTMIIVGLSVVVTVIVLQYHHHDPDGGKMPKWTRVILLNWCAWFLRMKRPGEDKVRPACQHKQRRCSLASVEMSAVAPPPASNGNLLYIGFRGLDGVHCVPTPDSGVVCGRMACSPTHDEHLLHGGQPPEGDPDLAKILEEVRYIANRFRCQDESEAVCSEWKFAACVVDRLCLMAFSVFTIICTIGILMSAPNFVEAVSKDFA

T1 sequence (P30926 whole entry): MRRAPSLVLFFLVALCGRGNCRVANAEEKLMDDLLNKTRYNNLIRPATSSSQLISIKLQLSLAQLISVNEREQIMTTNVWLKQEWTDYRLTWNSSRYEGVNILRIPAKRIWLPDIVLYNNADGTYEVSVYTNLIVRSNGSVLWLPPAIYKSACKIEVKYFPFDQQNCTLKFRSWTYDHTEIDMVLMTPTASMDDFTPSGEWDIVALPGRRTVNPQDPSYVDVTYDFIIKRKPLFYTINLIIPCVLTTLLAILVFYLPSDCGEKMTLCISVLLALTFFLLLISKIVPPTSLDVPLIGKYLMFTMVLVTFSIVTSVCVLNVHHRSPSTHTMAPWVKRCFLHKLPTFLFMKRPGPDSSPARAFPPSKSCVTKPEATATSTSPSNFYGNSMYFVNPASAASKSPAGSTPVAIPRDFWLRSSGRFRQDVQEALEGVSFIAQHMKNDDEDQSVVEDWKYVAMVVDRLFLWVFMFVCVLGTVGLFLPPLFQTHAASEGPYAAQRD
T1 sequence (P32297 whole entry): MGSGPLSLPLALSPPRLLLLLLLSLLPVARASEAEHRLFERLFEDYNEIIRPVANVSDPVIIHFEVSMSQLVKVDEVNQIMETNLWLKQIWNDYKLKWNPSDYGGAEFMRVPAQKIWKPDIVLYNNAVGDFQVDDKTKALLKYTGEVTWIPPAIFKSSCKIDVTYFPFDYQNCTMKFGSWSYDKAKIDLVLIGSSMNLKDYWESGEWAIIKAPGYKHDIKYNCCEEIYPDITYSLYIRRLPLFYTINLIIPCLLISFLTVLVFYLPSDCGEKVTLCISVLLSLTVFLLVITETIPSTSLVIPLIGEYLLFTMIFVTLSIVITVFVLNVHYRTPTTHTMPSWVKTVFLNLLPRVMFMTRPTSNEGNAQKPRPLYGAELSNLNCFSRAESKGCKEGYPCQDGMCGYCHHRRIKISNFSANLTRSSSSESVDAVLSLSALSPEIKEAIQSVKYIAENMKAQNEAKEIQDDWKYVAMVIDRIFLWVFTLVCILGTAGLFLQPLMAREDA

Row | SMILES | Emax [1] [%] | Ki [2] [µM] | Ki [3] [µM] | EC50 [4] [µM] | EC50 [5] [µM] | Ki [6] [µM] | Emax [7] [%] | Ki [8] [µM]
1 | Cc1ccoc1C(=O)N1CC2CNCC2C1 (stereo unspecified) | 40 | 0.032 | 0.022 | 14 | 23 | 2.2 | 64 | 3.7
2 | O=C(C1CC1)N1C[C@H]2CN[C@@H](C2)C1 | 140 | 0.007 | 0.01 | 1.7 | 1.4 | 0.11 | 100 | 0.04
3 | O=C(c1occc1Br)N1CC2CNCC2C1 (stereo unspecified) | 83 | 0.002 | 0.008 | 4.2 | 27 | 3.8 | 90 | 6.3
4 | O=C(c1ccc(Br)o1)N1C[C@H]2CN[C@@H](C2)C1 | 43 | 0.045 | 0.085 | 4.8 | 13 | 3 | 50 | 14
5 | O=C(c1ccc(F)o1)N1C[C@@H]2CN[C@H](C2)C1 | 110 | 0.005 | 0.017 | 2.1 | 6.9 | 0.9 | 110 | 14
6 | O=C(c1cc(Br)co1)N1CC2CNCC2C1 (stereo unspecified) | 45 | 0.016 | 0.091 | 6.5 | 36 | 7.7 | 15 | 4.6
7 | O=C(c1ccc(Br)o1)N1CC2CNCC2C1 (stereo unspecified) | 25 | 0.074 | 0.24 | 22 | 29 | 7.2 | 40 | > 10
8 | O=C(c1ccno1)N1CC2CNCC2C1 (stereo unspecified) | 17 | 0.049 | 0.047 | 6.8 | 66 | 7.1 | 150 | 19
9 | O=C(C1CC1)N1CC2CNC(C2)C1 (stereo unspecified) | 150 | 0.004 | 0.001 | 1.7 | 4.2 | 0.42 | 100 | 0.35
10 | O=C(c1ccc(Cl)o1)N1C[C@H]2CN[C@@H](C2)C1 | 100 | 0.016 | 0.12 | 3 | 14 | 5.2 | 92 | 14
11 | O=C(c1ccco1)N1C[C@H]2CN[C@@H](C2)C1 | 120 | 0.015 | 0.097 | 4.7 | 17 | 1.7 | 83 | 0.56
12 | O=C(c1cc(Cl)co1)N1CC2CNCC2C1 (stereo unspecified) | 53 | 0.011 | 0.065 | 11 | 56 | 7.1 | 39 | > 10
13 | Cc1ncoc1C(=O)N1CC2CNCC2C1 (stereo unspecified) | 51 | 0.008 | 0.06 | 6.8 | 33 | 22 | 110 | 5.9
14 | O=C(c1occc1F)N1CC2CNCC2C1 (stereo unspecified) | 35 | 0.023 | 0.054 | 4.8 | 44 | 6.5 | 96 | > 10
15 | O=C(c1ncco1)N1CC2CNCC2C1 (stereo unspecified) | 5 | 0.34 | 0.47 | 31 | 79 | 100 | 65 | 14
16 | O=C(c1ccco1)N1C[C@@H]2CN[C@H](C2)C1 | 130 | 0.013 | 0.011 | 7.4 | 15 | 0.45 | 36 | 5.5
17 | O=C(C1CC1)N1CC2CNCC2C1 (stereo unspecified) | 130 | 0.004 | 0.007 | 0.47 | 4.9 | 0.67 | 110 | 0.84
